Values quoted from earlier work as cited in patent US6623763B2, “Pharmaceutical preparation adhering to the skin, in particular a transdermal therapeutic system for the release of 17-β-estradiol to the human organism” (LTS Lohmann Therape-System AG, priority 1996, dated 2003).

Legend:
[1] = test system: Alzheimer's and Parkinson's disease; details: uniform supply of estradiol

Compound | temperature of short-term heat treatment without decomposition | efficacy for prophylaxis of Alzheimer's and Parkinson's disease [1]
C[C@]12CC[C@@H]3c4ccc(O)cc4CC[C@H]3[C@@H]1CC[C@@H]2O [17-β-estradiol semihydrate, 17-β-estradiol-semihydrate] | up to 170 °C | –
C[C@]12CC[C@@H]3c4ccc(O)cc4CC[C@H]3[C@@H]1CC[C@@H]2O [17-β-estradiol] | – | effective
